These results are taken from patent US20050148673A1, “Prolonged administration of NMDA antagonist and safener drug to alter neuropathic pain condition” (priority 2002, published 2005).

Data set [1] deals with patients with CRPS-Type 1 (RSD) neuropathic pain. Kind of data set: Prolonged continuous intravenous ketamine infusion with clonidine and MgSO4 in U.S. patients with CRPS-Type 1 (RSD). The class given is in vivo, human. How it is done:
Roughly 2 hours before ketamine infusion begins, the patient should be given an oral dose of a “safener drug” that can reduce or eliminate the risks of any neurotoxic side effects that might otherwise be caused by continuous prolonged administration of the ketamine. […] As an additional benefit, clonidine (and various other alpha-2 adrenergic agonist drugs) can also help reduce blood pressure. This is useful, when used in conjunction with ketamine, since elevated blood pressure can be a side effect of ketamine, due to certain activities involving the sympathetic nervous system and the release of catecholamines.
In the treatments disclosed herein, clonidine tablets containing 0.1 or 0.2 mg were administered orally, every 8 to 12 hours, with good results. […] The transdermal form of clonidine (i.e., using skin patches) has also been used, with good results.
Beginning roughly 2 hours before the ketamine infusion is commenced (this can be done conveniently at the same time when the first clonidine tablet is taken), the patient should also be administered magnesium, preferably by intravenous infusion of a water-soluble salt, such as magnesium sulfate or chloride. This can be done by dissolving 2 grams of MgSO4 in 250 milliliters of 5% dextrose in water (abbreviated as D5W) and infusing the liquid into the patient over a period of about 2 hours.
A second infusion of 2 grams of MgSO4 should be administered roughly 24 hours later. This can be repeated each day, if desired, if the patient has not yet achieved complete cessation of the chronic pain; however, in the treatments completed to date, it has never been provided more than 3 times.
As soon as the initial magnesium infusion (which takes about 2 hours) has been completed, the patient is ready for the ketamine infusion to begin. In the treatments described herein, since these were done without being able to rapidly determine ketamine concentrations in blood, each patient was individually “titered”, by testing a series of gradually increasing dosages until a “maximum tolerated dosage” was reached and determined.
This typically was done by starting each patient at an initial dosage of 10 mg per hour, and then evaluating the patient every 2 hours after that, to see whether the dosage should be increased by another 5 or 10 mg/hr. When a patient began showing or reporting substantial CNS effects (such as feeling drunk, slurring of speech, semi-hallucinatory thoughts or visions, etc.), it was presumed that the maximum tolerated dosage had been reached or slightly passed, and the dosage was decreased slightly (such as by 5 or 10 mg/hr, depending on how well the reported pain levels were decreasing).
Four other patients who had suffering from CRPS type 1 for at least two years were subsequently treated in the U.S. Because of patient privacy concerns, the details of their condition cannot be disclosed herein. Typical treatments for these patients commenced with 2 grams of MgSO4 (infused in 5% dextrose in water, or D5W) and 1 or 2 tablets of 0.1 mg clonidine, two or three times per day as tolerated, commencing at least an hour prior to the first ketamine infusion. Throughout the treatment, patients continued to receive 1 or 2 tablets of clonidine 2 to 3 times per day, as tolerated, and a second magnesium infusion was performed in some patients at 24 hr.

Data set [2] concerns patients with chronic neuropathic pain. Kind of data set: Prolonged infusions of ketamine without any safener drug or magnesium, patients treated in Australia. The class given is in vivo, human. The source says: About 30 patients have been treated during the span of 1997 through 2002, in Australia, by one of the Inventors herein (Correll), using prolonged infusions of ketamine without any safener drug or magnesium. […] Those patients have been described in more detail in Correll et al 2004, and more current information on the duration of remission are provided in FIGS. 1 and 2 of that report. That report is not prior art against this invention.

The test system of data set [3] is patients with post-herpetic neuralgia (shingles). Kind of data set: Ketamine treatment of patients with post-herpetic neuralgia (shingles). It counts as in vivo, human. How it is done: Several patients were also treated who suffered from post-herpetic neuralgia (commonly known as shingles).
Data set [4] concerns patients with post-herpetic neuralgia. The conditions noted are these: cited from earlier work; for patients in whom side effects were observed: single intravenous injection, of 8 patients (ketamine 0.15 mg/kg, morphine 0.075 mg/kg), Eide et al 1994.
Data set [5] is described as follows: Ketamine and norketamine concentrations in blood plasma during infusion. The class given is in vivo, human. The procedure: Blood samples were taken from each patient during his or her infusion regimen, and those samples were shipped to an analytical laboratory (National Medical Services Company, in Willow Grove, Pa.) to have their ketamine concentrations analyzed. […] In view of those data, it is believed that blood plasma concentrations of at least about 200 ng/ml (and preferably at least about 250 to about 350 ng/ml) should be regarded as target levels for effective treatments.

The next data set relates to NMDA receptors. The conditions noted are these: cited from earlier work.

For `CNC1(c2ccccc2Cl)CCCCC1=O` (racemic) [ketamine], the reported pain level result in data set [1] (FIG. 1 patient, baseline 8, after 24 hours of ketamine infusion (plateau)) is “about 1.3”; in data set [1] (FIG. 1 patient, within about 3 hours after second MgSO4 infusion commencing at 24 hours, ketamine continued) it was “zero”. In data set [1] (FIG. 1 patient, one of four further CRPS type 1 patients), the “duration of apparently complete relief” value was “roughly six”. Also, in data set [1] (first patient treated in the U.S.), the “duration of apparently complete remission” value is “about 18 months”. The pain relief outcome in data set [1] (one of four further CRPS type 1 patients, appears permanent as of filing date) is listed as “apparently complete relief”. Moreover, in data set [1] (one of two patients with low ketamine plasma concentrations), the “level to which pain returned, relative to pretreatment level” value is on record as “roughly 50%”. Also, the “level to which pain returned” value in data set [1] (other of two patients with low ketamine plasma concentrations) was “roughly the same starting level that existed prior to treatment”. For the same compound, in data set [2] (ketamine alone, about 30 patients), the overall result is “generally good results”. Further, the “patients believed to remain generally pain-free or in partial remission” value in data set [2] (of about 30 patients treated 1997 through 2002, ketamine alone) is given as “more than 25 patients”. The “outcome in certain other patients” value in data set [3] was “transitory and partial benefits”. In addition, the “outcome in one patient” value in data set [3] is on record as “essentially complete remission”. In addition, the “patients in whom side effects were observed” value in data set [4] is listed as 8 patients. Besides, the tolerability entry in data set [4] (subcutaneous administration over a continuous span of 7 days, 5 patients, Eide et al 1995) is given as “associated with intolerable side effects”. Also, the “blood plasma concentration of ketamine in the two patients without complete and long-lasting relief” value in data set [5] (did not reach or even closely approach this level) is less than 300 ng/mL. Further, the “blood plasma concentration of ketamine that appeared to provide the best results” value in data set [5] (plasma, during infusion) is listed as “greater than 250 ng/ml”.

As for `CN1CC[C@]23c4c5ccc(O)c4O[C@H]2[C@@H](O)C=C[C@H]3[C@H]1C5` [morphine], the “patients in whom side effects were observed” value in data set [4] was 6 patients.

As for `NC1(c2ccccc2Cl)CCCCC1=O` (stereo not shown) [norketamine], in the data set with NMDA receptors, the “effectiveness relative to ketamine in reducing pain signals” value is recorded as “about 25%” and the “effectiveness relative to ketamine in suppressing activity at NMDA receptors” value is given as “about 25%”. In data set [5] (one patient with return of pain), the “level of norketamine in blood” value was “high level”.
